Laboratory results reported in patent US20220362186A1, “Application of p-Hydroxyphenylpropionic Acid to Prepare Medicine for Preventing and Treating Respiratory Tract Infection” (SUN YAT-SEN UNIVERSITY, priority 2020, published 2022).
≈ marks a conversion by molar mass, not a printed value. Where two headings read alike, the source gives them in different places. Marks after values point to notes of the source that are not given here. Values belong to the compound of their own block, whether it stands above or below them.

Assays:
[1] = tested on: lipopolysaccharide-induced mouse acute lung injury model; assay: Lipopolysaccharide-induced mouse acute lung injury model; assay type: in vivo, Balb/c mice; conditions: for LDH Activity in Lung / MPO Activity in Lung / MPO Content in Lung / Lung Tissue Dry-to-wet Ratio: 24 h after LPS; for Lung Tissue Dry-to-wet Ratio: mean ± SD
Procedure: Experimental method: the mice were acclimatized for 72 hours in an SPF animal room with constant temperature and constant humidity after purchase. The mice were randomly divided into four groups, that is, a blank control group (n=10), a model control group (n=10), a positive control medicine naringin group (n=11) and a p-hydroxyphenylpropionic acid group (n=11). The naringin group (180 mg/kg) and the p-hydroxyphenylpropionic acid group (51.6 mg/kg) were continuously subjected to intragastric administration once a day, for three days respectively; and the blank control group and the model control group were administered intragastrically with equivoluminal normal saline. The mice were anesthetized through intraperitoneal injection of 0.5 ml of pentobarbital sodium (65 mg/kg) three hours after the last intragastric administration. For the mice in the model group, the naringin group and the p-hydroxyphenylpropionic acid group, 50 μl of lipopolysaccharide 055:B5 solution (0.8 mg/ml) was slowly instilled into the nasal cavities of the mice until being completely absorbed, and a mouse acute lung injury model was established. The mice in the blank control group received nasal drops of the equivoluminal normal saline. The mice were killed by a cervical vertebra dislocation method 24 hours after the lipopolysaccharide modeling was performed, and the whole lung tissue of the mice was collected and put into a sterile centrifugal tube and was stored in liquid nitrogen within 30 seconds. After the lung tissue stored in the liquid nitrogen was placed at room temperature for 30 minutes, a wet weight was weighed. A drying vessel was dried at 80° C. for 24 hours and then was taken out and placed at room temperature for weighing. Then, the drying vessel was taken out after 1 hour of constant weight at 80° C. and was placed at room temperature for weighing. After the weight of the drying vessel was constant, the lung tissue was placed in the drying vessel, was dried at 80° C. for 48 hours and taken out, and was placed at room temperature for weighing. Then, the drying vessel was taken out after 1 hour of constant weight at 80° C. and was placed at room temperature for weighing. […] [formula] [formula] 24 hours after the lipopolysaccharide modeling was performed, the mice were killed and about 400 mg of lung tissue was collected. 1 ml of PBS-10% Triton was added into the lung tissue to serve as a lysis solution for homogenization. After the protein concentration was measured by a BCA protein concentration kit, the sample loading quantity was adjusted to 50 μg of total protein and 100 μl of total volume, and the content of myeloperoxidase (MPO), the activity of the MPO and the activity of lactic dehydrogenase (LDH) in the lung tissue sample were measured by kits. The data in the table are presented as mean±standard deviation, and analysis of difference among multiple groups is realized by a one-way analysis of variance Beforroni method and SPSS 22.0 software.

Klebsiella pneumoniae = assay: Antibacterial experiment in vitro, broth microdilution (CLSI); assay type: cell-based; conditions: 20 h, 20-hour cultivation at 37° C.
chronic smoked mice = assay: Chronic lung injury caused by smoking (chronic smoked mice); assay type: in vivo, Balb/c mice; conditions: for Cchord / FEV50/FVC: 8 weeks smoking; for Lymphocyte count of alveolar lavage fluid / Monocyte count of alveolar lavage fluid / Neutrophil count of alveolar lavage fluid: BALF; for IL-1β in lung tissue / IL-6 in lung tissue / IL-18 in lung tissue / LTB4 in lung tissue / TNF-α in lung tissue: lung tissue homogenate, ELISA
Staphylococcus aureus = assay: Antibacterial experiment in vitro, broth microdilution (CLSI); assay type: cell-based; conditions: 20-hour cultivation at 37° C.
[2] = 51.6 mg/kg intragastric once a day for three days
[3] = high-dose 60 mg/kg intragastric
[4] = 180 mg/kg intragastric once a day for three days

MIC (Klebsiella pneumoniae; strain K11): 64 µg/mL (≈ 385 µM)
MIC (Klebsiella pneumoniae; Klebsiella pneumoniae, strain K1): 128 µg/mL (≈ 770 µM)
MIC (Klebsiella pneumoniae; Klebsiella pneumoniae, strain K2): 128 µg/mL (≈ 770 µM)
MIC (Klebsiella pneumoniae; Klebsiella pneumoniae, strain K3): 128 µg/mL (≈ 770 µM)
MIC (Klebsiella pneumoniae; Klebsiella pneumoniae, strain K4): 128 µg/mL (≈ 770 µM)
MIC (Klebsiella pneumoniae; Klebsiella pneumoniae, strain K5): 128 µg/mL (≈ 770 µM)
MIC (Klebsiella pneumoniae; Klebsiella pneumoniae, strain K6): 64 µg/mL (≈ 385 µM)
MIC (Klebsiella pneumoniae; Klebsiella pneumoniae, strain K7): 128 µg/mL (≈ 770 µM)
MIC (Klebsiella pneumoniae; Klebsiella pneumoniae, strain K8): 64 µg/mL (≈ 385 µM)
MIC (Klebsiella pneumoniae; Klebsiella pneumoniae, strain K9): 64 µg/mL (≈ 385 µM)
MIC (Klebsiella pneumoniae; Klebsiella pneumoniae, strain K10): 64 µg/mL (≈ 385 µM)
MIC (Klebsiella pneumoniae; Klebsiella pneumoniae, strain K12): 64 µg/mL (≈ 385 µM)
MIC (Staphylococcus aureus; Staphylococcus aureus, strain S4, read-out: MIC): 64 µg/mL (≈ 385 µM)
MIC (Staphylococcus aureus; strain S1): 64 µg/mL (≈ 385 µM)
MIC (Staphylococcus aureus; strain S2): 64 µg/mL (≈ 385 µM)
MIC (Staphylococcus aureus; strain S3): 64 µg/mL (≈ 385 µM)
MIC (Staphylococcus aureus; strain S5): 64 µg/mL (≈ 385 µM)
MIC (Staphylococcus aureus; strain S6): 64 µg/mL (≈ 385 µM)
MIC (Staphylococcus aureus; strain S7): 64 µg/mL (≈ 385 µM)
MIC (Staphylococcus aureus; strain S8): 64 µg/mL (≈ 385 µM)
MIC (Staphylococcus aureus; strain S9): 64 µg/mL (≈ 385 µM)
MIC (Staphylococcus aureus; strain S10): 64 µg/mL (≈ 385 µM)
SMILES: O=C(O)CCc1ccc(O)cc1 [HPPA, p-Hydroxyphenylpropionic acid]
LDH Activity in Lung [1, 2]: 271.19 ± 27.70 ## units/gprot
MPO Activity in Lung [1, 2]: 1.756 ± 0.190 ## units/gprot
MPO Content in Lung [1, 2]: 324.09 ± 36.33 ## pg/ml
Lung Tissue Dry-to-wet Ratio [1, 2]: 4.90 ± 0.52
Cchord (chronic smoked mice; [3]): 0.041 ± 0.0029 mL/cm H2O
FEV50/FVC (chronic smoked mice; [3]): 0.333 ± 0.040
Lymphocyte count of alveolar lavage fluid (chronic smoked mice; [3]): 1.014 ± 0.107# 10^5/mL
Monocyte count of alveolar lavage fluid (chronic smoked mice; [3]): 3.100 ± 0.554## 10^5/mL
Neutrophil count of alveolar lavage fluid (chronic smoked mice; [3]): 0.743 ± 0.190## 10^5/mL
IL-1β in lung tissue (chronic smoked mice; [3]): 35.27 ± 6.509 pg/mL
IL-6 in lung tissue (chronic smoked mice; [3]): 1027 ± 90.56 pg/mL
IL-18 in lung tissue (chronic smoked mice; [3]): 157.4 ± 9.098 pg/mL
LTB4 in lung tissue (chronic smoked mice; [3]): 7241 ± 1024 pg/mL
TNF-α in lung tissue (chronic smoked mice; [3]): 92.45 ± 13.24 pg/mL
Cchord (chronic smoked mice; low-dose 15 mg/kg intragastric): 0.0448 ± 0.0041 mL/cm H2O
FEV50/FVC (chronic smoked mice; low-dose 15 mg/kg intragastric): 0.360 ± 0.039
Lymphocyte count of alveolar lavage fluid (chronic smoked mice; low-dose 15 mg/kg intragastric): 1.317 ± 0.117 10^5/mL
Monocyte count of alveolar lavage fluid (chronic smoked mice; low-dose 15 mg/kg intragastric): 3.871 ± 0.544 10^5/mL
Neutrophil count of alveolar lavage fluid (chronic smoked mice; low-dose 15 mg/kg intragastric): 1.129 ± 0.287 10^5/mL
IL-1β in lung tissue (chronic smoked mice; low-dose 15 mg/kg intragastric): 47.18 ± 6.822 pg/mL
IL-6 in lung tissue (chronic smoked mice; low-dose 15 mg/kg intragastric): 1483 ± 300.3 pg/mL
IL-18 in lung tissue (chronic smoked mice; low-dose 15 mg/kg intragastric): 180.1 ± 6.667 pg/mL
LTB4 in lung tissue (chronic smoked mice; low-dose 15 mg/kg intragastric): 8344 ± 1356#^ pg/mL
TNF-α in lung tissue (chronic smoked mice; low-dose 15 mg/kg intragastric): 126.3 ± 10.34 pg/mL

SMILES: C[C@@H]1O[C@@H](O[C@H]2[C@H](Oc3cc(O)c4c(c3)O[C@H](c3ccc(O)cc3)CC4=O)O[C@H](CO)[C@@H](O)[C@@H]2O)[C@H](O)[C@H](O)[C@H]1O [Naringin, naringin]
LDH Activity in Lung [1, 4]: 310.93 ± 27.77 units/gprot
MPO Activity in Lung [1, 4]: 1.913 ± 0.262 units/gprot
MPO Content in Lung [1, 4]: 415.85 ± 52.15 pg/mL
Lung Tissue Dry-to-wet Ratio [1, 4]: 5.15 ± 0.47
Effect on lung inflammation, pulmonary edema, neutrophil infiltration and cell necrosis in ALI (in words) ([1]; 180 mg/kg intragastric, P<0.01 vs model control): effectively inhibit the progress of lung inflammation in the ALI and alleviate pulmonary edema, local neutrophil infiltration and cell necrosis

SMILES: O=C(Nc1c(Cl)cncc1Cl)c1ccc(OC(F)F)c(OCC2CC2)c1 [Roflumilast, roflumilast, reference compound]
Cchord (chronic smoked mice; 5 mg/kg intragastric): 0.042 ± 0.0054 mL/cm H2O
FEV50/FVC (chronic smoked mice; 5 mg/kg intragastric): 0.367 ± 0.042
Lymphocyte count of alveolar lavage fluid (chronic smoked mice; 5 mg/kg intragastric): 0.914 ± 0.227## 10^5/mL
Monocyte count of alveolar lavage fluid (chronic smoked mice; 5 mg/kg intragastric): 3.014 ± 0.319## 10^5/mL
Neutrophil count of alveolar lavage fluid (chronic smoked mice; 5 mg/kg intragastric): 0.729 ± 0.180## 10^5/mL
IL-1β in lung tissue (chronic smoked mice; 5 mg/kg intragastric): 34.02 ± 7.098 pg/mL
IL-6 in lung tissue (chronic smoked mice; 5 mg/kg intragastric): 963.2 ± 188.8 pg/mL
IL-18 in lung tissue (chronic smoked mice; 5 mg/kg intragastric): 143.4 ± 18.34 pg/mL
LTB4 in lung tissue (chronic smoked mice; 5 mg/kg intragastric): 6809 ± 670.8 pg/mL
TNF-α in lung tissue (chronic smoked mice; 5 mg/kg intragastric): 102.4 ± 17.34 pg/mL
